The text below walks through data of patent publication US9284321B2, “Piperazino[1,2-a]indol-1-ones and [1,4]diazepino[1,2-a]indol-1-one” (Hoffmann-La Roche Inc., priority 2012, dated 2016).

In data set [1] the test system is human embryonic stem cell derived neural stem cells (NSCs). Description: Neural Stem Cell Proliferation Assay (neurogenesis assay, ATP levels by CellTiterGlo). The format is cell-based. The following applies: 96 h, compound concentration at which 150% activity of control (100%) is reached, NSC proliferation by ATP level after 4 days incubation, dose response 8 μM to 8 nM. Put shortly:
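Read-out is CellTiterGlo ATP luminescence after 4-day culture (37 °C, 5% CO2) of dual-SMAD-derived human ESC NSCs, dosed 4 h post-seeding at 8 μM to 8 nM (11 points, 2-fold). EC150 marks the concentration reaching 150% of the media-only control (0.25% DMSO).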

The term melting point denotes the temperature of the solid-liquid transition.

For `Cc1c2n(c3c(-c4cc(F)cc(F)c4)cc(C#N)cc13)CCNC2=O` [Example 261, 6-(3,5-Difluorophenyl)-10-methyl-1-oxo-3,4-dihydro-2H-pyrazino[1,2-a]indole-8-carbonitrile], the melting point stood at 303 °C. Besides, in data set [1], the EC (150% of control) came out at 0.091 µM.

Compound `Cc1c2n(c3c(-c4ccnc(F)c4)cc(C#N)cc13)CCNC2=O` [Example 168, 6-(2-Fluoro-pyridin-4-yl)-10-methyl-1-oxo-1,2,3,4-tetrahydro-pyrazino[1,2-a]indole-8-carbonitrile] had a melting point of 256 °C. For the same compound, the EC (150% of control) in data set [1] is 0.064 µM.

`Cc1c2n(c3c(-c4ccc(C(F)(F)F)cc4)cc(C#N)cc13)CCCNC2=O` [Example 197, 11-Methyl-1-oxo-7-[4-(trifluoromethyl)phenyl]-2,3,4,5-tetrahydro-[1,4]diazepino[1,2-a]indole-9-carbonitrile] came in with a melting point of 252 °C. Also, in data set [1], the EC (150% of control) was found to be 0.14 µM.

As to `O=C1NCCCn2c1cc1cc(F)cc(-c3ccc(Cl)cc3)c12` [Example 29, 7-(4-Chloro-phenyl)-9-fluoro-2,3,4,5-tetrahydro-[1,4]diazepino[1,2-a]indol-1-one], the melting point was determined as 263.5 °C. In data set [1], this compound displayed an EC (150% of control) of 0.03 µM.

The compound `Cc1c2n(c3c(-c4ccc(F)cc4)cc(Cl)cc13)CCNC2=O` [Example 66, 8-Chloro-6-(4-fluoro-phenyl)-10-methyl-3,4-dihydro-2H-pyrazino[1,2-a]indol-1-one] showed a melting point of 227.5 °C. In data set [1], this compound registered an EC (150% of control) of 0.047 µM.

For the compound `Cc1c2n(c3c(-c4ccc(OC(F)(F)F)cc4)cc(C#N)cc13)CCCNC2=O` [Example 201, 11-Methyl-1-oxo-7-[4-(trifluoromethoxy)-phenyl]-2,3,4,5-tetrahydro-[1,4]diazepino[1,2-a]indole-9-carbonitrile], the melting point was 218 °C. Moreover, in data set [1], the EC (150% of control) was determined as 0.048 µM.

With `COc1ccc(-c2cc(F)c(F)c3cc4n(c23)CCCNC4=O)cc1` [Example 37, 9,10-Difluoro-7-(4-methoxy-phenyl)-2,3,4,5-tetrahydro-[1,4]diazepino[1,2-a]indol-1-one], the melting point came to 207.5 °C. Moreover, the EC (150% of control) in data set [1] was 0.45 µM.

Turning to `O=C1NCCn2c1cc1cc(Cl)cc(-c3ccc(F)c(F)c3)c12` [Example 50, 8-Chloro-6-(3,4-difluoro-phenyl)-3,4-dihydro-2H-pyrazino[1,2-a]indol-1-one], the melting point came out at 277.5 °C. For the same compound, in data set [1], the EC (150% of control) worked out at 0.13 µM.

The compound `Cc1c2n(c3c(-c4cc(F)c(F)c(F)c4)cc(C#N)cc13)CCNC2=O` [Example 240, 10-Methyl-1-oxo-6-(3,4,5-trifluorophenyl)-3,4-dihydro-2H-pyrazino[1,2-a]indole-8-carbonitrile] showed a melting point of 253 °C. For the same compound, the EC (150% of control) in data set [1] stood at 0.11 µM.

As for `COc1ccc(-c2cccc3cc4n(c23)[C@H](C)CNC4=O)cc1` [Example 2, (R)-6-(4-Methoxy-phenyl)-4-methyl-3,4-dihydro-2H-pyrazino[1,2-a]indol-1-one], the melting point was 247 °C. The EC (150% of control) in data set [1] worked out at 0.85 µM.

Regarding `O=C1NCCn2c1cc1cc(F)c(F)c(-c3ccc(F)cc3)c12` [Example 38, 7,8-Difluoro-6-(4-fluoro-phenyl)-3,4-dihydro-2H-pyrazino[1,2-a]indol-1-one], the melting point stood at 286.5 °C. This compound gave an EC (150% of control) in data set [1] of 0.03 µM.

Regarding `O=C1NCCCn2c1cc1cc(F)cc(-c3ccc(C(F)(F)F)cc3)c12` [Example 31, 9-Fluoro-7-(4-trifluoromethyl-phenyl)-2,3,4,5-tetrahydro-[1,4]diazepino[1,2-a]indol-1-one], the melting point came out at 257 °C. Besides, in data set [1], the EC (150% of control) came out at 0.056 µM.

Compound `N#Cc1cc(-c2ccnc(Cl)c2)c2c(c1)cc1n2CCCNC1=O` [Example 257, 7-(2-Chloropyridin-4-yl)-1-oxo-2,3,4,5-tetrahydro-[1,4]diazepino[1,2-a]indole-9-carbonitrile] showed a melting point of 286.5 °C. The compound also gave an EC (150% of control) in data set [1] of 0.54 µM.

In turn, `Cc1c2n(c3c(-c4ccc(Cl)cc4F)cc(C#N)cc13)CCCNC2=O` [Example 207, 7-(4-Chloro-2-fluorophenyl)-11-methyl-1-oxo-2,3,4,5-tetrahydro-[1,4]diazepino[1,2-a]indole-9-carbonitrile] returned a melting point of 259 °C. This compound registered an EC (150% of control) in data set [1] of 0.019 µM.

`Cc1c2n(c3c(-c4ccc(Cl)cc4Cl)cc(F)cc13)CCNC2=O` [Example 120, 6-(2,4-Dichloro-phenyl)-8-fluoro-10-methyl-3,4-dihydro-2H-pyrazino[1,2-a]indol-1-one]: the melting point was determined as 214 °C. Also, the EC (150% of control) in data set [1] is 0.01 µM.

Compound `Cc1c2n(c3c(-c4ccc(CO)cc4)cc(F)cc13)CCNC2=O` [Example 130, 8-Fluoro-6-(4-hydroxymethyl-phenyl)-10-methyl-3,4-dihydro-2H-pyrazino[1,2-a]indol-1-one] registered a melting point of 220 °C. Besides, the EC (150% of control) in data set [1] stood at 0.011 µM.

`N#Cc1cc(-c2cccc(Cl)c2)c2c(c1)cc1n2CCCNC1=O` [Example 285, 7-(3-Chlorophenyl)-1-oxo-2,3,4,5-tetrahydro-[1,4]diazepino[1,2-a]indole-9-carbonitrile] displayed a melting point of 209 °C. Moreover, the EC (150% of control) in data set [1] came to 3.12 µM.

`Cc1c2n(c3c(-c4cc(F)c(F)c(F)c4)cc(F)cc13)CCNC2=O` [Example 159, 8-Fluoro-10-methyl-6-(3,4,5-trifluoro-phenyl)-3,4-dihydro-2H-pyrazino[1,2-a]indol-1-one] registered a melting point of 250 °C. Besides, the EC (150% of control) in data set [1] is 0.22 µM.

On to `C[C@@H]1CNC(=O)c2cc3cc(F)cc(-c4ccc(Cl)cc4)c3n21` [Example 11, (R)-6-(4-Chloro-phenyl)-8-fluoro-4-methyl-3,4-dihydro-2H-pyrazino[1,2-a]indol-1-one], for which the melting point worked out at 282.5 °C. Besides, in data set [1], the EC (150% of control) worked out at 0.1 µM.

For `N#Cc1cc(-c2ccc(F)c(F)c2)c2c(c1)c(C(F)(F)F)c1n2CCNC1=O` [Example 182, 6-(3,4-Difluoro-phenyl)-1-oxo-10-trifluoromethyl-1,2,3,4-tetrahydro-pyrazino[1,2-a]indole-8-carbonitrile], the melting point stood at 217 °C. This compound had an EC (150% of control) in data set [1] of 0.29 µM.

In the case of `Cc1c2n(c3c(-c4ccc(C(C)(C)C)cc4)cc(C#N)cc13)CCNC2=O` [Example 280, 6-(4-tert-Butylphenyl)-10-methyl-1-oxo-3,4-dihydro-2H-pyrazino[1,2-a]indole-8-carbonitrile], the melting point came to 292 °C. Moreover, in data set [1], the EC (150% of control) worked out at 0.14 µM.

Compound `Cc1c2n(c3c(-c4ccccc4)cc(F)cc13)CCNC2=O` [Example 80, 8-Fluoro-10-methyl-6-phenyl-3,4-dihydro-2H-pyrazino[1,2-a]indol-1-one] registered a melting point of 244 °C. The compound also came in with an EC (150% of control) in data set [1] of 0.098 µM.

With `O=C1NCCn2c1cc1cc(F)cc(-c3ccc(Cl)cc3)c12` [Example 23, 6-(4-Chloro-phenyl)-8-fluoro-3,4-dihydro-2H-pyrazino[1,2-a]indol-1-one], the melting point was 322 °C. In data set [1], this compound came in with an EC (150% of control) of 0.019 µM.
